# Laboratory results published in ChEMBL document CHEMBL1141425, “Cytotoxic clerodane diterpenoids and their hydrolysis products from Casearia nigrescens from the rainforest of Madagascar” (J Nat Prod, 2007).
# Test system: A2780
# Experiment: Cytotoxicity against human A2780 cells
# Assay type: cell-based
row,Structure (SMILES),IC50
1,C=CC(=C)CC[C@]1(C)[C@H](C)[C@@H](OC(C)=O)[C@H](O)[C@@]2(C=O)C(C=O)=C[C@H](OC(=O)CCC)C[C@@H]12,3.5 µM
2,C=CC(=C)CC[C@]1(C)[C@H](C)[C@@H](OC(C)=O)[C@H](O)[C@@]23C(=C[C@H](OC(=O)CCC)C[C@@H]12)[C@@H](OC(C)=O)O[C@H]3OC(C)=O [CASEANIGRESCEN A],1.4 µM
3,C=CC(=C)CC[C@]1(C)[C@H](C)[C@@H](O)[C@H](O)[C@@]23C(=C[C@H](OC(=O)CCC)C[C@@H]12)[C@@H](OC(C)=O)O[C@H]3OC(C)=O [CASEANIGRESCEN B],0.83 µM
4,C=CC(=C)CC[C@]1(C)[C@H](C)[C@@H](O)[C@H](OC(C)=O)[C@@]23C(=C[C@H](OC(=O)CCC)C[C@@H]12)[C@@H](OC(C)=O)O[C@H]3OC(C)=O [CASEANIGRESCEN C],1 µM
5,C=CC(=C)CC[C@]1(C)[C@H](C)C[C@H](O)[C@@]2(C=O)C(C=O)=C[C@H](OC(=O)CCC)C[C@@H]12 [CASEANIGRESCEN D2],1.5 µM
6,C=CC(=C)CC[C@]1(C)[C@H](C)C[C@H](O)[C@@]23C(=C[C@H](OC(=O)CCC)C[C@@H]12)[C@@H](OC(C)=O)O[C@H]3OC(C)=O [CASEANIGRESCEN D],1 µM
